Patent US11534440B2, “Combination therapy with Axl inhibitor and immune checkpoint modulator or oncolytic virus” (BerGenBio ASA, priority 2015, dated 2022)
Entries after “also recorded” stand apart in the source; their conditions may differ.

Columns and labels:
[1] = tested on: Cytotoxic T cells (CTLs), Natural Killer cells, macrophages, neutrophils, mMDSCs; assay: Immune cell sub-populations in tumors and spleens, 4T1 model; format: in vivo, Balb/c mice
Source text: • Species/Strain: Balb/c ABomTac • Source: Taconic Farms • Sex: Female • Weight: 20-30 grams on the day of implantation • Age: at least 6 weeks old on the day of randomization • Animal Identification: Cage number and ear notching Experimental Animals for Syngeneic Lewis Lung Model: • Species/Strain: C57BL/6JOlaHsd • Source: Harlan Laboratories • Sex: Female • Weight: 20-30 grams on the day of implantation • Age: at least 6 weeks old on the day of randomization • Animal Identification: Cage number and ear notching Cells and Materials: • RPMI-1640 (Sigma, Cat. # R8758) supplemented with 10% fetal bovine serum (FBS), L-glutamine (4 mM), streptomycin (5 μg/ml) and penicillin (5 U/ml). • BD Matrigel™ Basement Membrane Matrix Growth Factor Reduced, BD Bioscience, Cat. #354230, Lot #2229975. • 0.25% Trypsin-EDTA, Sigma, Cat. # SLBD8049. Drugs Vehicle: 0.5% HPMC/0.1% Tween 80 vehicle for BGB324. Sterile PBS for immune checkpoint inhibitors. IgG: InVivoMAb Polyclonal Armenian Hamster IgG, BE0091, BioXCell, Isotype control for IP injections. BGB324: Manufacturer: Almac Group, N Ireland, batch Q1080. BGB324 powder was stored at room temperature. The BGB324 dosage given was well below the MTD in mice (023-TR-324). […] BGB324 was diluted in vehicle to 5 mg/ml dosing solution and administered to the mice immediately. BGB324 solution was freshly prepared every day. Anti-mCTLA-4 (CD152) monoclonal antibody (CTAA-4): Syrian Hamster IgG, clone 9H10 (BioXCell, Cat. # BE0131). Anti-mPD-1 monoclonal antibody (PD-1): rat IgG2a, clone RMP1-14 (BioXCell, Cat. # BE0146). Anti-mPD-L1 monoclonal antibody (PD-L1): rat IgG2b, clone 10F.9G2 (BioXCell, Cat # BE0101). Methods Cell Culture 4T1 mammary adenocarcinoma cells and Non Small Cell Lung Cancer (NSCLC) Lewis Lung (LL2) were propagated at sub-confluence and split on a regular basis every 3rd day. After trypsinization, the cells were washed once in RPMI/FBS (7 min at 1200 rpm) and re-suspended at 4×10^6 cells/ml (4T1 cells) or 2.5×10^6 per ml (LL2 cells) in a mixture of serum-free RPMI medium and Matrigel (1:1). Subcutaneous Tumor Inoculation Each animal was weighed before cell implantation. Injection of cells was performed after anesthetizing of mice by inhalation of sevoflurane. Anesthesia was induced with 8% sevoflurane and maintained at 4%. During injection, the mouse was placed on a heating pad. For implantation of 4T1 tumors: under a suitable depth of unconsciousness, each mouse was shaved and skin surrounding the region was washed with Chlorhexidine (1 mg/ml) with use of sterile gauze. […] Assignment of Experimental Groups Before commencement of treatment, the animals were weighted and the tumor volume was measured twice a week. […]

[2] = tested on: Cytotoxic T cells (CTLs), Natural Killer cells (NK), mMDSCs; assay: Immune cell sub-populations in tumors, Lewis Lung model; format: in vivo, C57Bl/6 mice; details: BGB324 combined with PD-1/PD-L1 compared to PD-1/PD-L1 alone, day 21
Source text: • Species/Strain: Balb/c ABomTac • Source: Taconic Farms • Sex: Female • Weight: 20-30 grams on the day of implantation • Age: at least 6 weeks old on the day of randomization • Animal Identification: Cage number and ear notching Experimental Animals for Syngeneic Lewis Lung Model: • Species/Strain: C57BL/6JOlaHsd • Source: Harlan Laboratories • Sex: Female • Weight: 20-30 grams on the day of implantation • Age: at least 6 weeks old on the day of randomization • Animal Identification: Cage number and ear notching Cells and Materials: • RPMI-1640 (Sigma, Cat. # R8758) supplemented with 10% fetal bovine serum (FBS), L-glutamine (4 mM), streptomycin (5 μg/ml) and penicillin (5 U/ml). • BD Matrigel™ Basement Membrane Matrix Growth Factor Reduced, BD Bioscience, Cat. #354230, Lot #2229975. • 0.25% Trypsin-EDTA, Sigma, Cat. # SLBD8049. Drugs Vehicle: 0.5% HPMC/0.1% Tween 80 vehicle for BGB324. Sterile PBS for immune checkpoint inhibitors. IgG: InVivoMAb Polyclonal Armenian Hamster IgG, BE0091, BioXCell, Isotype control for IP injections. BGB324: Manufacturer: Almac Group, N Ireland, batch Q1080. BGB324 powder was stored at room temperature. […] BGB324 was diluted in vehicle to 5 mg/ml dosing solution and administered to the mice immediately. BGB324 solution was freshly prepared every day. Anti-mCTLA-4 (CD152) monoclonal antibody (CTAA-4): Syrian Hamster IgG, clone 9H10 (BioXCell, Cat. # BE0131). […] Anti-mPD-L1 monoclonal antibody (PD-L1): rat IgG2b, clone 10F.9G2 (BioXCell, Cat # BE0101). Methods Cell Culture 4T1 mammary adenocarcinoma cells and Non Small Cell Lung Cancer (NSCLC) Lewis Lung (LL2) were propagated at sub-confluence and split on a regular basis every 3rd day. After trypsinization, the cells were washed once in RPMI/FBS (7 min at 1200 rpm) and re-suspended at 4×10^6 cells/ml (4T1 cells) or 2.5×10^6 per ml (LL2 cells) in a mixture of serum-free RPMI medium and Matrigel (1:1). Subcutaneous Tumor Inoculation Each animal was weighed before cell implantation. Injection of cells was performed after anesthetizing of mice by inhalation of sevoflurane. […]

Lewis Lung tumors = assay: Subcutaneous Lewis Lung syngeneic tumor model: survival, tumor burden, metastasis; format: in vivo; details: Lewis Lung tumor bearing C57Bl/6 mice; BGB324 combined with PD-1/PD-L1 compared to PD-1/PD-L1 alone
Source text: • Species/Strain: Balb/c ABomTac • Source: Taconic Farms • Sex: Female • Weight: 20-30 grams on the day of implantation • Age: at least 6 weeks old on the day of randomization • Animal Identification: Cage number and ear notching Experimental Animals for Syngeneic Lewis Lung Model: • Species/Strain: C57BL/6JOlaHsd • Source: Harlan Laboratories • Sex: Female • Weight: 20-30 grams on the day of implantation • Age: at least 6 weeks old on the day of randomization • Animal Identification: Cage number and ear notching Cells and Materials: • RPMI-1640 (Sigma, Cat. # R8758) supplemented with 10% fetal bovine serum (FBS), L-glutamine (4 mM), streptomycin (5 μg/ml) and penicillin (5 U/ml). • BD Matrigel™ Basement Membrane Matrix Growth Factor Reduced, BD Bioscience, Cat. #354230, Lot #2229975. • 0.25% Trypsin-EDTA, Sigma, Cat. # SLBD8049. Drugs Vehicle: 0.5% HPMC/0.1% Tween 80 vehicle for BGB324. Sterile PBS for immune checkpoint inhibitors. IgG: InVivoMAb Polyclonal Armenian Hamster IgG, BE0091, BioXCell, Isotype control for IP injections. BGB324: Manufacturer: Almac Group, N Ireland, batch Q1080. BGB324 powder was stored at room temperature. […] BGB324 was diluted in vehicle to 5 mg/ml dosing solution and administered to the mice immediately. BGB324 solution was freshly prepared every day. […]

[3] = 4T1 model, BGB324 combined with CTLA-4/PD-1 compared to CTLA-4/PD-1 alone, day 11

Nc1nc(Nc2ccc3c(c2)CC[C@@H](N2CCCC2)CC3)nn1-c1cc2c(nn1)-c1ccccc1CCC2 [BGB324, 1-(6,7-dihydro-5H-benzo[6,7]cyclohepta[1,2-c]pyridazin-3-yl)-N^3-((7-(S)-pyrrolidin-1-yl)-6,7,8,9-tetrahydro-5H-benzo[7]annulene-2-yl)-1H-1,2,4-triazole-3,5-diamine]
number of CTLs in the spleen ([1]; 4T1 model, 43 days after treatment initiation, compared to immune check point inhibitors alone): further enhanced the number of CTLs | presence of Natural Killer cells, macrophages and neutrophils in spleens [1, 3]: enhanced presence of NK cells, macrophages and PMN neuotrophiles | presence of pro-tumorigenic mMDSCs in spleens [1, 3]: reduction in the presence of pro-tumorigenic mMDSC | tumor infiltration of Cytotoxic T cells (CTLs) ([1]; 4T1 tumors, BGB324 combined with CTLA-4/PD-1 compared to CTLA-4/PD-1 alone): enhanced CTL tumor infiltration; also recorded: further enhanced tumour infiltration of CTLs | presence of pro-tumorigenic mMDSCs ([2]; Lewis Lung model): reduction in the presence of pro-tumorigenic mMDSC | tumor infiltration / presence of Natural Killer cells (NK) ([2]; Lewis Lung tumors): enhanced presence of NK cells | tumor infiltration of Cytotoxic T cells (CTLs) ([2]; Lewis Lung tumors): enhanced CTL tumor infiltration | survival (tumor reaching 500 mm^3 as endpoint) (Lewis Lung tumors): significantly prolonged survival | tumor burden (Lewis Lung tumors): reduced tumor burden
